Literature values in US20240108579A1, “UTIDELONE LIPOSOME COMPOSITION, AND PREPARATION METHOD THEREFOR AND USE THEREOF” (Chengdu Biostar Pharmaceuticals, LTD., priority 2021, published 2024).
Like-named read-outs stand apart in the source and are kept apart here.

CC1=CCC(C(C)=Cc2csc(C)n2)OC(=O)CC(O)C(C)(C)C(=O)C(C)C(O)C(C)CCC1 (stereo not drawn) [Utidelone, 4,8-dihydroxy-5,5,7,9,13-pentamethyl-16-[1-methyl-2-(2-methyl-thiazole-4-yl)-vinyl]-hexadecoxetane-13-en-2,6-one lactone]
solubility (in words) (ethanol, methanol, ethyl acetate, and chloroform): easily soluble | saturated solubility in water (water): less than 1 μg/ml | solubility (in words) (water): insoluble
